The values below come from ChEMBL document CHEMBL4619725, “Ultrasounds-mediated 10-seconds synthesis of chalcones as potential farnesyltransferase inhibitors” (Bioorg Med Chem Lett, 2020).

The test system of test [1] is K562. Briefly: Cytostatic activity against human K562 cells assessed as growth inhibition at 10 uM incubated for 48 hrs by sulforhodamine B assay relative to control. The class given is functional. To be noted: K562, 48 h, read-out: GI.
The species entered for test [2] is Homo sapiens. Briefly: Inhibition of C-terminal His6-tagged human recombinat FTase expressed in Escherichia coli BL21 RIL (DE3) cells using Dansyl-GCVLS peptide and farnesyl pyrophosphate as substrate at 100 uM measured for 15 mins by fluorimetric analysis relative to control.
Test [3] deals with KM12. Briefly: Cytostatic activity against human KM12 cells assessed as growth inhibition at 10 uM incubated for 48 hrs by sulforhodamine B assay relative to control. In kind it is functional. To be noted: for inhibition of growth at 10 µM: KM12, 48 h, read-out: GI. Background: Sulforhodamine B stains cellular protein and so reports cell mass.
The test system of test [4] is HCT-116. Nature of the test: Cytostatic activity against human HCT116 cells assessed as growth inhibition at 10 uM incubated for 48 hrs by sulforhodamine B assay relative to control. In kind it is functional. To be noted: HCT-116, 48 h, read-out: GI.
Test [5] has as its system NCI-H522. Nature of the test: Cytostatic activity against human NCI-H522 cells assessed as growth inhibition at 10 uM incubated for 48 hrs by sulforhodamine B assay relative to control. To be noted: NCI-H522, 48 h, read-out: GI. The class given is functional.
Test [6] deals with LOX IMVI. Briefly: Cytostatic activity against human LOXIMVI cells assessed as growth inhibition at 10 uM incubated for 48 hrs by sulforhodamine B assay relative to control. The class given is functional. To be noted: for inhibition of growth at 10 µM: read-out: GI.
The test system of test [7] is SR. Nature of the test: Cytostatic activity against human SR cells assessed as growth inhibition at 10 uM incubated for 48 hrs by sulforhodamine B assay relative to control. The class given is functional. To be noted: for inhibition of growth at 10 µM: read-out: GI.
Test [8] deals with SW-620. Briefly: Cytostatic activity against human SW620 cells assessed as growth inhibition at 10 uM incubated for 48 hrs by sulforhodamine B assay relative to control. The class given is functional. To be noted: for inhibition of growth at 10 µM: SW-620, 48 h, read-out: GI.
The subject of test [9] is MCF7. Briefly: Cytostatic activity against human MCF7 cells assessed as growth inhibition at 10 uM incubated for 48 hrs by sulforhodamine B assay relative to control. In kind it is functional. To be noted: MCF7, 48 h, read-out: GI.
Test [10] has as its system OVCAR-3. Briefly: Cytostatic activity against human OVCAR3 cells assessed as growth inhibition at 10 uM incubated for 48 hrs by sulforhodamine B assay relative to control. The class given is functional. To be noted: for inhibition of growth at 10 µM: OVCAR-3, 48 h, read-out: GI.
The subject of test [11] is CCRF-CEM. Briefly: Cytostatic activity against human CCRF-CEM cells assessed as growth inhibition at 10 uM incubated for 48 hrs by sulforhodamine B assay relative to control. The class given is functional. To be noted: for inhibition of growth at 10 µM: read-out: GI.
Test [12] has as its system RPMI-8226. Nature of the test: Cytostatic activity against human RPMI8226 cells assessed as growth inhibition at 10 uM incubated for 48 hrs by sulforhodamine B assay relative to control. The class given is functional. To be noted: for inhibition of growth at 10 µM: RPMI-8226, 48 h, read-out: GI.
The subject of test [13] is SW-620. Briefly: Cytotoxicity against human SW620 cells assessed as growth inhibition of preexisting tumor cells at 10 uM incubated for 48 hrs by sulforhodamine B assay relative to control. In kind it is functional. To be noted: SW-620, 48 h, read-out: GI.
Test [14] can be described thus: Inhibition of C-terminal His6-tagged human recombinat FTase expressed in Escherichia coli BL21 RIL (DE3) cells using Dansyl-GCVLS peptide and farnesyl pyrophosphate as substrate measured for 15 mins by fluorimetric analysis.

Activity calls are given as the source filed them. The calls are words filed in the database; no cut-off is given here.

Broadly, the inhibition is the relative decrease from the control value, in per cent. For `O=C(/C=C/c1ccc(Cl)c(Cl)c1)c1cccs1`, the inhibition of growth at 10 µM in test [1] worked out at 71.6%; in [3], 15.4%; in [4], 39.8%; in test [5], 24.7%; in test [6], 45.7%; in test [7], 78%. Moreover, the inhibition of growth at 10 µM in [8] is 29.6%; in test [9], 87.1%; in test [10], 6.8%; in test [11] it was 31.3%; in test [12], 66.9%. Moreover, in test [2], the inhibition amounted to 47%.
For the compound `O=C(/C=C/c1ccc(Cl)nc1)c1ccc(Cl)cc1Cl`, the inhibition of growth at 10 µM in test [1] worked out at 92.3%; in test [3] it was 23.5%; in test [4], 63.3%; in [5] it was 61.3%; in test [6] it was 93.5%; in test [13], 33.2%. Moreover, the inhibition of growth at 10 µM in test [8] amounted to 100%; in test [9], 82.9%; in [10], 21.5%; in [11], 93%. Besides, the inhibition in test [2] worked out at 53%.
Broadly, the IC50 is the concentration needed to halve the response being measured. With `O=C(/C=C/c1ccc(Cl)cc1Cl)c1ccc(Cl)c(Cl)c1`, the inhibition of growth at 10 µM in [1] stood at 2.4%; in [3], 0.3%; in [4], 13.9%; in test [5], 11.4%; in [7], 2.8%; in test [9], 28.3%. Further, in [12], the inhibition of growth at 10 µM was 5.4%. In addition, the inhibition in [2] was determined as 74%. Besides, the “growth inhibition (GI)” value in test [6], in test [8], in [10] and in test [11] was “inactive” in each case. Further, in test [14], the IC50 amounted to 8.7 µM.
Consider `O=C(c1cccs1)[C@H]1[C@H](c2ccc(Cl)cc2Cl)[C@@H](C(=O)c2cccs2)[C@](O)(c2cccs2)C[C@@H]1c1ccc(Cl)cc1Cl`, for which the inhibition of growth at 10 µM in test [1] was 16.5%; in test [3], 4.7%; in [4], 21.2%; in test [5], 18.5%; in [6] it was 3.1%; in [7] it was 10%. The inhibition of growth at 10 µM in test [8] came out at 12.7%; in [9], 18.3%; in test [10] it was 11.5%; in test [11], 22.3%; in [12] it was 26.8%. The inhibition in test [2] stood at 11%.
As for `O=C(c1cccs1)[C@H]1[C@H](c2cccs2)[C@@H](C(=O)c2cccs2)[C@](O)(c2cccs2)C[C@@H]1c1cccs1`, the inhibition of growth at 10 µM in test [1] is 14.5%; in test [3], 3.4%; in test [4] it was 6.1%; in test [5], 15.3%; in test [6], 7.8%; in test [7], 7.9%. The inhibition of growth at 10 µM in test [9] came to 12.2%; in test [11], 5%; in test [12] it was 17.7%. Also, the inhibition in test [2] was found to be 2%. The “growth inhibition (GI)” value in test [8] and in test [10] was “inactive” each time.
For `O=C(CC(CC(=O)c1cccs1)c1ccc(Cl)cc1Cl)c1cccs1`, the inhibition of growth at 10 µM in [1] worked out at 25%; in test [3], 4.8%; in [4], 34.7%; in [5], 17.3%; in test [6] it was 10.9%; in test [7] it was 9.7%. The inhibition of growth at 10 µM in test [8] came to 4.4%; in [9], 10.2%; in test [11], 7.9%; in [12] it was 17.3%. Besides, the inhibition in test [2] came out at 0%. For the same compound, the “growth inhibition (GI)” value in test [10] is “inactive”.
In the case of `O=C(/C=C/c1ccc(Cl)c(Cl)c1)c1ccc(Cl)c(Cl)c1`, the inhibition of growth at 10 µM in test [1] was 9.7%; in test [4], 6.1%; in test [5], 8.1%; in [7] it was 6.1%; in test [9], 14.2%; in [11], 3.7%. Besides, in test [12], the inhibition of growth at 10 µM was found to be 7.2%. For the same compound, in [2], the inhibition was found to be 60%. Moreover, the “growth inhibition (GI)” value in [3], in test [6], in [8] and in test [10] was “inactive” throughout. Moreover, the IC50 in test [14] is 96.6 µM.
As for `O=C(/C=C/c1ccc(Cl)cc1Cl)c1ccc(Cl)nc1`, the inhibition of growth at 10 µM is 18.9% in test [1]; 3.6% in test [3]; 56.6% in [4]; 24.2% in test [5]; 65.1% in [6]; 55.7% in test [7]. Besides, the inhibition of growth at 10 µM in [8] was determined as 7.9%; in [9] it was 63.4%; in test [11], 6.5%; in [12], 8.9%. In test [2], the inhibition is 39%. In addition, the “growth inhibition (GI)” value in test [10] was “inactive”.
`O=C(/C=C/c1cccs1)c1ccc(Cl)nc1`: the inhibition of growth at 10 µM in [1] worked out at 2.9%; in test [4], 8.9%; in test [5], 18%; in test [7] it was 17.5%; in [9], 32.3%; in test [11], 8.6%. Further, the inhibition of growth at 10 µM in [12] came to 95.8%. The “growth inhibition (GI)” value in [3], in test [6], in test [8] and in test [10] was “inactive” each time.
`O=C(/C=C/c1cccs1)c1ccc(Cl)c(Cl)c1`: the inhibition of growth at 10 µM came out at 1.7% in [1]; 2.8% in test [3]; 2.2% in test [4]; 8.6% in test [5]; 5.5% in test [8]; 72.5% in [9]. In addition, in [2], the inhibition turned out to be 98%. For the same compound, the “growth inhibition (GI)” value in test [6], in test [7], in test [10], in test [11] and in [12] was “inactive” in each case. In test [14], the IC50 amounted to 7.4 µM.
